From patent US20080051466A1, “Isoalpha acid based protein kinase modulation cancer treatment” (Metaproteomics, LLC, priority 2006, published 2008)

What was measured:
Assay in all cases: KinaseProfiler Assay
Type in all cases: biochemical
PI3K gamma = PI3K gamma (Homo sapiens, UniProt P48736); conditions: 50 μg/ml
CK1γ3 = CK1γ3 (Homo sapiens, UniProt Q9Y6M4); conditions: read-out: CK1γ3, % of Control
PKA = PKA (Homo sapiens, UniProt P17612); conditions: read-out: PKA, % of Control
CDK5/p35 = CDK5/p35 (Homo sapiens, UniProt Q00535); conditions: read-out: CDK5/p35, % of Control
Rsk2 = Rsk2 (Homo sapiens, UniProt P51812); conditions: read-out: Rsk2, % of Control
CHK1 = target: T1, CHK1 (Homo sapiens, UniProt O14757); conditions: read-out: CHK1, % of Control
T1 sequence (O14757 1-476): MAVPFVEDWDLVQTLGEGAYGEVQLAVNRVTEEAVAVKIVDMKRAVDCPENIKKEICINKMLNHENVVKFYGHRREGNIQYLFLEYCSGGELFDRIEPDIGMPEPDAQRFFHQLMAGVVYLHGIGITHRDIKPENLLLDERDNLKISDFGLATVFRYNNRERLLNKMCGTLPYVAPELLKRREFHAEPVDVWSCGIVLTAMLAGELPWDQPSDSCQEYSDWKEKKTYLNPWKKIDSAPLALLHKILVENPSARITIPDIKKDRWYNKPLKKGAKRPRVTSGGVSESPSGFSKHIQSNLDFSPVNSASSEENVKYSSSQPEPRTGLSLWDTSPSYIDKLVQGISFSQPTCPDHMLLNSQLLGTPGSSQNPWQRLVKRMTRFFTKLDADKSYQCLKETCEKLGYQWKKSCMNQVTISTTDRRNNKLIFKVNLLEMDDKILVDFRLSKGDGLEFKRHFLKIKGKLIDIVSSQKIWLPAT

GSK3β = GSK3β (Homo sapiens, UniProt P49841); conditions: read-out: GSK3β, % of Control
MAPK1 = MAPK1 (Homo sapiens, UniProt P27361); conditions: read-out: MAPK1, % of Control
PAK6 = PAK6 (Homo sapiens, UniProt Q9NQU5); conditions: read-out: PAK6, % of Control
PAK3 = PAK3 (Homo sapiens, UniProt O75914); conditions: read-out: PAK3, % of Control
CK1γ2 = CK1γ2 (Homo sapiens, UniProt P78368); conditions: read-out: CK1γ2, % of Control
DAPK1 = DAPK1 (Homo sapiens, UniProt P53355); conditions: read-out: DAPK1, % of Control
CHK2 = CHK2 (Homo sapiens, UniProt O96017); conditions: read-out: CHK2, % of Control
Pim-2 = Pim-2 (Homo sapiens, UniProt Q9P1W9); conditions: read-out: Pim-2, % of Control
CDK1/cyclinB = CDK1/cyclinB (Homo sapiens, UniProt P06493); conditions: read-out: CDK1/cyclinB, % of Control
Tie2 = Tie2 (Homo sapiens, UniProt Q02763); conditions: 50 ug/ml; read-out: Tie2, % of Control
MINK = MINK (Homo sapiens, UniProt Q8N4C8); conditions: read-out: MINK, % of Control
CDK6/cyclinD3 = CDK6/cyclinD3 (Homo sapiens, UniProt Q00534); conditions: read-out: CDK6/cyclinD3, % of Control
CDK2/cyclinE = CDK2/cyclinE (Homo sapiens, UniProt P24941); conditions: read-out: CDK2/cyclinE, % of Control

Sequence of MAPK1 (P27361 whole entry): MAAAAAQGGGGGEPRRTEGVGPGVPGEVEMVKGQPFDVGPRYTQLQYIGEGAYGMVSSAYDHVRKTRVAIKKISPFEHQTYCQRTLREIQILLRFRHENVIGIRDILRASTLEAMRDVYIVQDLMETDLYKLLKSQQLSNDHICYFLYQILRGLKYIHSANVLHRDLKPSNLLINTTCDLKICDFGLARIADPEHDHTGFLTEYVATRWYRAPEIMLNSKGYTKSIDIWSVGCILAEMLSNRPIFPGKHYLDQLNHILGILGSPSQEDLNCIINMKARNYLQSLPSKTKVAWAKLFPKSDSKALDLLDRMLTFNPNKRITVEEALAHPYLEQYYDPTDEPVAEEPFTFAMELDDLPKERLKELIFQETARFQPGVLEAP
Sequence of PAK3 (O75914 whole entry): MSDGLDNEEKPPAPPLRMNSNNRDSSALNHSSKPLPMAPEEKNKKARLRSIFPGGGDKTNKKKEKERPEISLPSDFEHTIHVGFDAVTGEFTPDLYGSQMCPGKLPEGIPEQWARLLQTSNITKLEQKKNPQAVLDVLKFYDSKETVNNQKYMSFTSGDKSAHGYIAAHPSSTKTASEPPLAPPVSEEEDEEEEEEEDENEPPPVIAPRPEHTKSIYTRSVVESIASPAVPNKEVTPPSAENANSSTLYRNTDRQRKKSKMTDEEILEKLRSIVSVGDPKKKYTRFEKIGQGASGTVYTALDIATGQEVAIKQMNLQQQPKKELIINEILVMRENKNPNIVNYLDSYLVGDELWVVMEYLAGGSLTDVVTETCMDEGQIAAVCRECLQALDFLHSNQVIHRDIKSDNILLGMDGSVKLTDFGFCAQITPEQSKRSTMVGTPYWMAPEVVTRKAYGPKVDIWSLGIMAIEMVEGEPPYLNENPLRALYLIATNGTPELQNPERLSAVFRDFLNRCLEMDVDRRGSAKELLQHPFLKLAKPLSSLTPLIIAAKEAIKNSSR
Sequence of CK1γ2 (P78368 whole entry): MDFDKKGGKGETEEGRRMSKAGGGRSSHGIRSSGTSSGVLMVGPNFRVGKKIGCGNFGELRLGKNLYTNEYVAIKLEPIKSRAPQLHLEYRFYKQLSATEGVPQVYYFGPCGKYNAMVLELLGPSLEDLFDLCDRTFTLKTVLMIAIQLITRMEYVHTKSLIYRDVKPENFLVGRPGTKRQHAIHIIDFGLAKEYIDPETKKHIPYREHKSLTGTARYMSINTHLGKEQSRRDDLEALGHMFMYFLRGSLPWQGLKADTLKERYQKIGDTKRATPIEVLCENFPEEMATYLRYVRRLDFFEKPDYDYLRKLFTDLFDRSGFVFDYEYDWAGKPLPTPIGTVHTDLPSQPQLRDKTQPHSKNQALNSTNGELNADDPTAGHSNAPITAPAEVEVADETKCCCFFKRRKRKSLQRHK
Sequence of GSK3β (P49841 whole entry): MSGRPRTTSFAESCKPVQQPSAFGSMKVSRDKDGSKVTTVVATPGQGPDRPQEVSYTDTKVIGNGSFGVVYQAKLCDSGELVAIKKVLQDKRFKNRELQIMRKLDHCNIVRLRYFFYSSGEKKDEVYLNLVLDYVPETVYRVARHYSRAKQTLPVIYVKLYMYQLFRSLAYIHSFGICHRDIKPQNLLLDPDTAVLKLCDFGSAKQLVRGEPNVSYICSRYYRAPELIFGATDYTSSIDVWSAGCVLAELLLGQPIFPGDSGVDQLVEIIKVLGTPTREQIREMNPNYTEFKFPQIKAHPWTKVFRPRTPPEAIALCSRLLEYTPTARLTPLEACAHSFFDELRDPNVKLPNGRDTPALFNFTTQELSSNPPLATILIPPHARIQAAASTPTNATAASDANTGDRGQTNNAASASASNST
Sequence of CDK1/cyclinB (P06493 whole entry): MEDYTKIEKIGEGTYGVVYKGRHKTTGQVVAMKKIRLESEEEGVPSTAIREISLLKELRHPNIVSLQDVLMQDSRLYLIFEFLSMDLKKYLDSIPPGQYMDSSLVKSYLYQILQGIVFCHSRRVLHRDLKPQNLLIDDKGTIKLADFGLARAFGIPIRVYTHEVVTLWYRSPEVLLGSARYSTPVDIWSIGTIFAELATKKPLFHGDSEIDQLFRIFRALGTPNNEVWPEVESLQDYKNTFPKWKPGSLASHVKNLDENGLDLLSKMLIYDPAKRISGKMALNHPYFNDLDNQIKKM
Sequence of CDK1/cyclinB (P14635 whole entry partner): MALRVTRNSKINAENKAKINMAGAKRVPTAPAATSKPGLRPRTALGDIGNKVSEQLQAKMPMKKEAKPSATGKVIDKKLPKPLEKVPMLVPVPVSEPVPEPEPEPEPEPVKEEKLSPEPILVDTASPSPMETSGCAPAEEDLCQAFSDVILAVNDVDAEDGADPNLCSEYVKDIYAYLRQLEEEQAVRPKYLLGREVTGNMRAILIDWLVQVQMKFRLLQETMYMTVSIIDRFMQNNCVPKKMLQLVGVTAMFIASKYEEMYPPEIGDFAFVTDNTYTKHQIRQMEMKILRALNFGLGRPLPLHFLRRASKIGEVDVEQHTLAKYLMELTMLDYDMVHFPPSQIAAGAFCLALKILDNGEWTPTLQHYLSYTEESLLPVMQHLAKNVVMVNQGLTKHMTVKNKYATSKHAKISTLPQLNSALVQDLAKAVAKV
Sequence of Rsk2 (P51812 whole entry): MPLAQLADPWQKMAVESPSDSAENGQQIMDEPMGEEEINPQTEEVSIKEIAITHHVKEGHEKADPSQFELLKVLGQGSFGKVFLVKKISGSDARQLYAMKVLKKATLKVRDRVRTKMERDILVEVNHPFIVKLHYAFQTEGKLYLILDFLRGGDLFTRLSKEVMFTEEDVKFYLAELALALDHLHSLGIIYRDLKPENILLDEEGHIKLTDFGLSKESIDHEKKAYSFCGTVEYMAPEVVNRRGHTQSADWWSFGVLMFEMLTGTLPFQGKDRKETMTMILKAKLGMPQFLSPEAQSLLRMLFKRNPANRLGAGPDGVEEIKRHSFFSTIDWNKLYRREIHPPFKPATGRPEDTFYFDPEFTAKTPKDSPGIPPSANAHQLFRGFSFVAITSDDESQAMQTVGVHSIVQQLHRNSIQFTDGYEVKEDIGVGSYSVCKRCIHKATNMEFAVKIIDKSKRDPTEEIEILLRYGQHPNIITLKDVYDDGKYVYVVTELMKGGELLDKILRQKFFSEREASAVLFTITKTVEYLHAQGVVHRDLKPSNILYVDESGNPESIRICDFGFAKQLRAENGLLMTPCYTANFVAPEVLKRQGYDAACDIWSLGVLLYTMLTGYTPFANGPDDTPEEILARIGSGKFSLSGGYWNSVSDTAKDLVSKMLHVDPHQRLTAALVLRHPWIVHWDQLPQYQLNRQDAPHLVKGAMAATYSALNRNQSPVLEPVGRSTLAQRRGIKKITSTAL
Sequence of Pim-2 (Q9P1W9 whole entry): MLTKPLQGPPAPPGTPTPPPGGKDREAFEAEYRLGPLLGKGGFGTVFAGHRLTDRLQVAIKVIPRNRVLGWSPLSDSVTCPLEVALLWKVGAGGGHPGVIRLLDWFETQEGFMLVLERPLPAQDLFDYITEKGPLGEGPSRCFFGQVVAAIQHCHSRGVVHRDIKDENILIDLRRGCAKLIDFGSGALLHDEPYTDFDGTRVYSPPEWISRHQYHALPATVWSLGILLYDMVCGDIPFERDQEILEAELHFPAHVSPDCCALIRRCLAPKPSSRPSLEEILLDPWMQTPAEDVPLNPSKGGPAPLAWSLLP
Sequence of CDK6/cyclinD3 (Q00534 whole entry): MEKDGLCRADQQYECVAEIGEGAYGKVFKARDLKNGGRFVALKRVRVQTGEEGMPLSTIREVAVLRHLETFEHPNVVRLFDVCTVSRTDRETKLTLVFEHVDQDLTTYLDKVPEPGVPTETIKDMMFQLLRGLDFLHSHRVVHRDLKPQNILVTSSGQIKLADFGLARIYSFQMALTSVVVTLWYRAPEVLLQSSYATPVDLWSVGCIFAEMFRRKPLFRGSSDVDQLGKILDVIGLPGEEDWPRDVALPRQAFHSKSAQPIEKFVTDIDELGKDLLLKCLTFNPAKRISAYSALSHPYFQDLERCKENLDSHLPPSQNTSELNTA
Sequence of CDK6/cyclinD3 (P30281 whole entry partner): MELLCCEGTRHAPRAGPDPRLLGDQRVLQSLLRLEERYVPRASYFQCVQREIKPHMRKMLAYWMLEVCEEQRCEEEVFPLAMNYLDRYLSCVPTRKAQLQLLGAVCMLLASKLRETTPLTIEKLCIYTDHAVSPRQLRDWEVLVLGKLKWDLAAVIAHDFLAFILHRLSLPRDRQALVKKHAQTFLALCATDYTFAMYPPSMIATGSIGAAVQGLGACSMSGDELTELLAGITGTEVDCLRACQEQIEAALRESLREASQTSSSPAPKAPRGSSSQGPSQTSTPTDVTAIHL
Sequence of CHK2 (O96017 whole entry): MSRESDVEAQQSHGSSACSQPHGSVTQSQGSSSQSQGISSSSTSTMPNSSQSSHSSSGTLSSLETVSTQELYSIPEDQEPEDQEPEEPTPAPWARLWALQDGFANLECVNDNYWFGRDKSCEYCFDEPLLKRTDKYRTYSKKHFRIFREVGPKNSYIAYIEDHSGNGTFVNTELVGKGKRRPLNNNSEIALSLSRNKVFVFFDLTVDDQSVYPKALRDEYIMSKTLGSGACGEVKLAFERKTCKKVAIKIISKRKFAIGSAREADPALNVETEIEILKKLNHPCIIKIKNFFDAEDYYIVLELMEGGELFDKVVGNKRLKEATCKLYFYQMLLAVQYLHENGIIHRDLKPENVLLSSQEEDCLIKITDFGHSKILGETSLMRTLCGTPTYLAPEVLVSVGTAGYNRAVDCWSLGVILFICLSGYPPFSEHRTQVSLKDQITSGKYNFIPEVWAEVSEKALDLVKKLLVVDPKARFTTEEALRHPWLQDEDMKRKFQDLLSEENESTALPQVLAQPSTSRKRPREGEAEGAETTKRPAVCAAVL

- remaining activity at 1 µg/mL (CK1γ3; 1 ug/ml): 98%
- remaining activity at 5 µg/mL (CK1γ3; 5 ug/ml): 51%
- remaining activity at 25 µg/mL (CK1γ3; 25 ug/ml): 22%
- remaining activity at 50 µg/mL (CK1γ3; 50 ug/ml): 15%
- remaining activity at 1 µg/mL (PKA; 1 ug/ml): 105%
- remaining activity at 5 µg/mL (PKA; 5 ug/ml): 109%
- remaining activity at 25 µg/mL (PKA; 25 ug/ml): 98%
- remaining activity at 50 µg/mL (PKA; 50 ug/ml): 21%
- remaining activity at 25 µg/mL (CDK5/p35; 25 ug/ml): 41%
- remaining activity at 50 µg/mL (CDK5/p35; 50 ug/ml): 44%
- remaining activity at 1 µg/mL (Rsk2; 1 ug/ml): 96%
- remaining activity at 5 µg/mL (Rsk2; 5 ug/ml): 43%
- remaining activity at 25 µg/mL (Rsk2; 25 ug/ml): 3%
- remaining activity at 1 µg/mL (CHK1; 1 ug/ml): 121%
- remaining activity at 5 µg/mL (CHK1; 5 ug/ml): 126%
- remaining activity at 25 µg/mL (CHK1; 25 ug/ml): 142%
- remaining activity at 50 µg/mL (CHK1; 50 ug/ml): 149%
- remaining activity at 1 µg/mL (GSK3β; 1 ug/ml): 120%
- remaining activity at 5 µg/mL (GSK3β; 5 ug/ml): 99%
- remaining activity at 25 µg/mL (GSK3β; 25 ug/ml): 25%
- remaining activity at 50 µg/mL (GSK3β; 50 ug/ml): 3%
- remaining activity at 5 µg/mL (MAPK1; 5 ug/ml): 64%
- remaining activity at 25 µg/mL (MAPK1; 25 ug/ml): 19%
- remaining activity at 50 µg/mL (MAPK1; 50 ug/ml): 17%
- remaining activity at 1 µg/mL (PAK6; 1 ug/ml): 105%
- remaining activity at 5 µg/mL (PAK6; 5 ug/ml): 94%
- remaining activity at 25 µg/mL (PAK6; 25 ug/ml): 14%
- remaining activity at 1 µg/mL (PAK3; 1 ug/ml): 21%
- remaining activity at 5 µg/mL (PAK3; 5 ug/ml): 18%
- remaining activity at 25 µg/mL (PAK3; 25 ug/ml): 8%
- remaining activity at 1 µg/mL (CK1γ2; 1 ug/ml): 92%
- remaining activity at 5 µg/mL (CK1γ2; 5 ug/ml): 48%
- remaining activity at 25 µg/mL (CK1γ2; 25 ug/ml): 30%
- remaining activity at 50 µg/mL (CK1γ2; 50 ug/ml): 12%
- remaining activity at 5 µg/mL (DAPK1; 5 ug/ml): 85%
- remaining activity at 50 µg/mL (DAPK1; 50 ug/ml): 20%
- remaining activity at 1 µg/mL (CHK2; 1 ug/ml): 25%
- remaining activity at 5 µg/mL (CHK2; 5 ug/ml): 5%
- remaining activity at 25 µg/mL (CHK2; 25 ug/ml): 3%
- remaining activity at 1 µg/mL (Pim-2; 1 ug/ml): 104%
- remaining activity at 5 µg/mL (Pim-2; 5 ug/ml): 48%
- remaining activity at 25 µg/mL (Pim-2; 25 ug/ml): 14%
- remaining activity at 50 µg/mL (Pim-2; 50 ug/ml): 6%
- remaining activity at 1 µg/mL (CDK1/cyclinB; 1 ug/ml): 118%
- remaining activity at 5 µg/mL (CDK1/cyclinB; 5 ug/ml): 103%
- remaining activity at 25 µg/mL (CDK1/cyclinB; 25 ug/ml): 46%
- remaining activity at 50 µg/mL (CDK1/cyclinB; 50 ug/ml): 18%
- remaining activity at 50 µg/mL (Tie2): 35%
- remaining activity at 1 µg/mL (MINK; 1 ug/ml): 42%
- remaining activity at 5 µg/mL (MINK; 5 ug/ml): 10%
- remaining activity at 25 µg/mL (MINK; 25 ug/ml): 5%
- remaining activity at 50 µg/mL (MINK; 50 ug/ml): 7%
- remaining activity at 1 µg/mL (CDK6/cyclinD3; 1 ug/ml): 110%
- remaining activity at 5 µg/mL (CDK6/cyclinD3; 5 ug/ml): 79%
- remaining activity at 25 µg/mL (CDK6/cyclinD3; 25 ug/ml): 23%
- remaining activity at 50 µg/mL (CDK6/cyclinD3; 50 ug/ml): 7%
- remaining activity at 1 µg/mL (CDK2/cyclinE; 1 ug/ml): 82%
- remaining activity at 5 µg/mL (CDK2/cyclinE; 5 ug/ml): 86%
- remaining activity at 25 µg/mL (CDK2/cyclinE; 25 ug/ml): 18%
Structure (SMILES): COc1cc(O)c(CC=C(C)C)c(O)c1C(=O)/C=C/c1ccc(O)cc1 [Xanthohumol, xanthohumol]
- inhibition of PI3K-γ activity (PI3K gamma): more inhibitory to PI3K-γ than to PI3K-β or PI3K-δ
